Laboratory results as given in publication PMC1533168 (Environmental Health Perspectives, 1998).
Values joined by “and” are separate entries in the source; they are usually repeats but may differ in a detail not shown here. Equal values may be shown once. Read-outs that look alike come from different tables or passages of the source.

Tests used:
[1] = cited from earlier work
[2] = Controlled chamber inhalation exposure: trichloroethene in venous blood; format: in vivo, human; conditions: for Blood model value at t = 0 (Blood, meas): elimination model; for Blood model value at t = 0 (Blood, meas) / Blood model value at t = 240: end of 100 ppmv 4 hr inhalation; for A coefficient (first), blood elimination model / Blood, 1st compartment half-life, elimination / A2 coefficient, blood elimination model: elimination period after 100 ppmv 4 hr inhalation; for Blood model value at t = 240: uptake model; for Blood, 1st compartment half-life, uptake / k1 time constant, blood uptake model: uptake period, 100 ppmv 4 hr inhalation; for k1 time constant, blood uptake model: time in minutes
[3] = format: in vivo, human; conditions: for Calc:meas ratio of peak blood level: elimination curves
[4] = format: in vivo, human; conditions: for A2 coefficient, breath elimination model / A1 coefficient, breath elimination model / Breath, 1st compartment half-life, elimination / Breath, 2nd compartment half-life, elimination / Breath, 3rd compartment half-life, elimination: elimination period after 100 ppmv 4 hr inhalation; for Breath model value at t = 0: elimination model; for Breath model value at t = 0 / Breath model value at t = 240: end of 100 ppmv 4 hr inhalation; for Breath model value at t = 240: uptake model; for Breath, 1st compartment half-life, uptake / k1 time constant, breath uptake model: uptake period, 100 ppmv 4 hr inhalation
[5] = measured in vitro, ref Fiserova-Bergerova and Diaz (24)
[6] = all subjects, 100 ppmv 4 hr inhalation and 20 hr purified air
[7] = Subject 108, end of 100 ppmv 4 hr inhalation
[8] = Subject 109, end of 100 ppmv 4 hr inhalation
[9] = Subject 110, end of 100 ppmv 4 hr inhalation
[10] = Subject 208, end of 100 ppmv 4 hr inhalation
[11] = Subject 209, end of 100 ppmv 4 hr inhalation
[12] = Subject 210, end of 100 ppmv 4 hr inhalation
[13] = all individual data point pairs, all subjects

**Q.** What does the source list for `ClC=C(Cl)Cl` [trichloroethene]?
**A.** Blood/air partition coefficient [1, 5]: 8.1; Partition coefficient for lung tissue [1, 5]: 14.0; Blood/air partition coefficient ([1]; measured in vitro, ref Gargas et al. (22)): 8.11; Blood/air partition coefficient ([1]; measured in vitro, ref Lindqvist (23)): 15.7; Blood/breath partition coefficient, accepted literature value ([1]; used in human pharmacokinetic model, ref Allen and Fisher (26)): 9.2; Pulmonary partition coefficient ([1]; value used, ref Fernandez et al. (25)): 9; Blood model value at t = 0 (Blood, meas) ([2]; Subject 108): 1,170.1 pg/I and 1,170 pg/I; A coefficient (first), blood elimination model ([2]; Subject 108): 820.7 micrograms per liter; Blood, 1st compartment half-life, elimination ([2]; Subject 108): 23.54 min; Blood model value at t = 240 ([2]; Subject 108): 1,317 pg/I; Blood, 1st compartment half-life, uptake ([2]; Subject 108): 26.60 min; k1 time constant, blood uptake model ([2]; Subject 108): 0.02606; Blood model value at t = 0 (Blood, meas) ([2]; Subject 109): 2,161.0 pg/I and 2,161 pg/I; A2 coefficient, blood elimination model ([2]; Subject 109): 287.0 micrograms per liter; A coefficient (first), blood elimination model ([2]; Subject 109): 1874 micrograms per liter; Blood, 1st compartment half-life, elimination ([2]; Subject 109): 17.93 min; Blood model value at t = 240 ([2]; Subject 109): 1,839 pg/I; Blood, 1st compartment half-life, uptake ([2]; Subject 109): 64.90 min; k1 time constant, blood uptake model ([2]; Subject 109): 0.01068; Blood model value at t = 0 (Blood, meas) ([2]; Subject 110): 1,481 pg/I and 1,480.9 pg/I; A2 coefficient, blood elimination model ([2]; Subject 110): 979.1 micrograms per liter; A coefficient (first), blood elimination model ([2]; Subject 110): 501.8 micrograms per liter; Blood, 1st compartment half-life, elimination ([2]; Subject 110): 6.86 min; Blood model value at t = 240 ([2]; Subject 110): 1,377 pg/I; Blood, 1st compartment half-life, uptake ([2]; Subject 110): 45.66 min; k1 time constant, blood uptake model ([2]; Subject 110): 0.01518; Blood model value at t = 0 (Blood, meas) ([2]; Subject 208): 1,284.6 pg/I and 1,285 pg/I; A2 coefficient, blood elimination model ([2]; Subject 208): 385.1 micrograms per liter; A coefficient (first), blood elimination model ([2]; Subject 208): 899.5 micrograms per liter; Blood, 1st compartment half-life, elimination ([2]; Subject 208): 12.49 min; Blood model value at t = 240 ([2]; Subject 208): 1,181 pg/I; Blood, 1st compartment half-life, uptake ([2]; Subject 208): 24.65 min; k1 time constant, blood uptake model ([2]; Subject 208): 0.02812; Blood model value at t = 0 (Blood, meas) ([2]; Subject 209): 1,641.0 pg/I and 1,641 pg/I; A2 coefficient, blood elimination model ([2]; Subject 209): 238.0 micrograms per liter; A coefficient (first), blood elimination model ([2]; Subject 209): 1403 micrograms per liter; Blood, 1st compartment half-life, elimination ([2]; Subject 209): 21.74 min; Blood model value at t = 240 ([2]; Subject 209): 1,608 pg/I; Blood, 1st compartment half-life, uptake ([2]; Subject 209): 47.12 min; k1 time constant, blood uptake model ([2]; Subject 209): 0.01471; Uptake curve model plateau coefficient, blood ([2]; Subject 210, Figure 1A): 1132 micrograms per liter; Blood model value at t = 0 (Blood, meas) ([2]; Subject 210): 1,183 pg/I and 1,182.9 pg/I; A2 coefficient, blood elimination model ([2]; Subject 210): 264.4 micrograms per liter and 264 micrograms per liter; A coefficient (first), blood elimination model ([2]; Subject 210): 918.5 micrograms per liter and 918 micrograms per liter; Blood, 1st compartment half-life, elimination ([2]; Subject 210): 15.39 min; Blood model value at t = 240 ([2]; Subject 210): 1,128 pg/I; Blood, 1st compartment half-life, uptake ([2]; Subject 210): 28.85 min; k1 time constant, blood uptake model ([2]; Subject 210): 0.02403; Relevant data range for blood samples [2, 6]: 100-1,600 pg/I; In vivo blood/breath partition coefficient, elimination-only data set ([3]; Mean ± SE of 6 subjects, end of 100 ppmv 4 hr inhalation): 9.69; Calc:meas ratio of peak blood level ([3]; Subject 108): 0.76; Blood:breath ratio at end of exposure, calculated from elimination models [3, 7]: 12.11; Blood:breath ratio at end of exposure, calculated from uptake models [3, 7]: 12.45; Calc:meas ratio of peak blood level ([3]; Subject 109): 0.75; Blood:breath ratio at end of exposure, calculated from elimination models [3, 8]: 12.31; Blood:breath ratio at end of exposure, calculated from uptake models [3, 8]: 14.12; Calc:meas ratio of peak blood level ([3]; Subject 110): 1.01; Blood:breath ratio at end of exposure, calculated from elimination models [3, 9]: 9.11; Blood:breath ratio at end of exposure, calculated from uptake models [3, 9]: 11.96; Calc:meas ratio of peak blood level ([3]; Subject 208): 0.93; Blood:breath ratio at end of exposure, calculated from elimination models [3, 10]: 9.89; Blood:breath ratio at end of exposure, calculated from uptake models [3, 10]: 11.97; Calc:meas ratio of peak blood level ([3]; Subject 209): 0.90; Blood:breath ratio at end of exposure, calculated from elimination models [3, 11]: 10.18; Blood:breath ratio at end of exposure, calculated from uptake models [3, 11]: 10.94; Calc:meas ratio of peak blood level ([3]; Subject 210): 1.51; Blood:breath ratio at end of exposure, calculated from elimination models [3, 12]: 6.07; Blood:breath ratio at end of exposure, calculated from uptake models [3, 12]: 9.99; Blood/breath regression slope (mean blood/breath ratio), elimination phase [3, 13]: 29.00; Blood/breath regression slope (mean blood/breath ratio), uptake phase [3, 13]: 10.93; Inspired trichloroethene excreted through exhalation ([3]; at equilibrium): about 22%; Share of the expired trichloroethene coming from the blood (first) compartment ([3]; elimination phase after 4-hr exposure): about 75%; In vivo blood/breath partition coefficient, overall mean ([3]; experiment time = 0, all subjects, uptake and elimination experiments): 10.8; Mean time constant for breath relative to its blood counterpart (times as large) ([3]; initial 10 min of elimination, first compartment dominant): 10; Time constant for breath relative to that for blood (times as large) ([3]; uptake portion of the experiment): about 2.5; A2 coefficient, breath elimination model ([4]; Mean ± SE of 6 subjects): 28.67 6.26 micrograms per liter; Breath model value at t = 0 ([4]; Subject 108): 96.6 pg/I; A1 coefficient, breath elimination model ([4]; Subject 108): 76.7 micrograms per liter; A2 coefficient, breath elimination model ([4]; Subject 108): 15.21 micrograms per liter; Breath, 1st compartment half-life, elimination ([4]; Subject 108): 4.40 min; Breath, 2nd compartment half-life, elimination ([4]; Subject 108): 54.15 min; Breath, 3rd compartment half-life, elimination ([4]; Subject 108): 424.98 min; Breath model value at t = 240 ([4]; Subject 108): 105.8 pg/I; Breath, 1st compartment half-life, uptake ([4]; Subject 108): 9.90 min; k1 time constant, breath uptake model ([4]; Subject 108, time in minutes): 0.07004; Breath model value at t = 0 ([4]; Subject 109): 175.5 pg/I; A1 coefficient, breath elimination model ([4]; Subject 109): 115.8 micrograms per liter; A2 coefficient, breath elimination model ([4]; Subject 109): 53.76 micrograms per liter; Breath, 1st compartment half-life, elimination ([4]; Subject 109): 1.15 min; Breath, 2nd compartment half-life, elimination ([4]; Subject 109): 27.16 min; Breath, 3rd compartment half-life, elimination ([4]; Subject 109): 541.52 min; Breath model value at t = 240 ([4]; Subject 109): 130.3 pg/I; Breath, 1st compartment half-life, uptake ([4]; Subject 109): 9.59 min; k1 time constant, breath uptake model ([4]; Subject 109, time in minutes): 0.07229; Breath model value at t = 0 ([4]; Subject 110): 162.5 pg/I; A1 coefficient, breath elimination model ([4]; Subject 110): 146.2 micrograms per liter; A2 coefficient, breath elimination model ([4]; Subject 110): 13.41 micrograms per liter; Breath, 1st compartment half-life, elimination ([4]; Subject 110): 4.07 min; Breath, 2nd compartment half-life, elimination ([4]; Subject 110): 88.18 min; Breath, 3rd compartment half-life, elimination ([4]; Subject 110): 1,269.50 min; Breath model value at t = 240 ([4]; Subject 110): 115.2 pg/I; Breath, 1st compartment half-life, uptake ([4]; Subject 110): 39.05 min; k1 time constant, breath uptake model ([4]; Subject 110, time in minutes): 0.01775; Breath model value at t = 0 ([4]; Subject 208): 129.9 pg/I; A1 coefficient, breath elimination model ([4]; Subject 208): 104.4 micrograms per liter; A2 coefficient, breath elimination model ([4]; Subject 208): 21.21 micrograms per liter; Breath, 1st compartment half-life, elimination ([4]; Subject 208): 0.97 min; Breath, 2nd compartment half-life, elimination ([4]; Subject 208): 29.98 min; Breath, 3rd compartment half-life, elimination ([4]; Subject 208): 396.31 min; Breath model value at t = 240 ([4]; Subject 208): 98.6 pg/I; Breath, 1st compartment half-life, uptake ([4]; Subject 208): 9.92 min; Breath model value at t = 0 ([4]; Subject 209): 161.2 pg/I; A1 coefficient, breath elimination model ([4]; Subject 209): 114.1 micrograms per liter; A2 coefficient, breath elimination model ([4]; Subject 209): 36.96 micrograms per liter; Breath, 1st compartment half-life, elimination ([4]; Subject 209): 2.68 min; Breath, 2nd compartment half-life, elimination ([4]; Subject 209): 21.44 min; Breath, 3rd compartment half-life, elimination ([4]; Subject 209): 262.26 min; Breath model value at t = 240 ([4]; Subject 209): 147.0 pg/I; Breath, 1st compartment half-life, uptake ([4]; Subject 209): 21.42 min; k1 time constant, breath uptake model ([4]; Subject 209, time in minutes): 0.03236; Uptake curve model plateau coefficient, breath ([4]; Subject 210, Figure 1B): 113 micrograms per liter; k3 time constant, breath elimination model ([4]; Subject 210, Figure 1D, time in minutes): .00061; Breath model value at t = 0 ([4]; Subject 210): 194.7 pg/I; A1 coefficient, breath elimination model ([4]; Subject 210): 156.8 micrograms per liter and 157 micrograms per liter; A2 coefficient, breath elimination model ([4]; Subject 210): 31.47 micrograms per liter and 31.5 micrograms per liter; Breath, 1st compartment half-life, elimination ([4]; Subject 210): 1.03 min; Breath, 2nd compartment half-life, elimination ([4]; Subject 210): 40.30 min; Breath, 3rd compartment half-life, elimination ([4]; Subject 210): 1,145.89 min; Breath model value at t = 240 ([4]; Subject 210): 113.0 pg/I; Breath, 1st compartment half-life, uptake ([4]; Subject 210): 18.94 min; k1 time constant, breath uptake model ([4]; Subject 210, time in minutes): 0.0366; Relevant data range for breath samples [4, 6]: <1-150 pg/I
